This passage reports IC50 and viability, T/C results from PubChem BioAssay AID2060899 (Molecular Pharmacology Branch, DTP, NCI, 2025).

In this assay the test system is 565726-208-R1-J5-PDC complex spheroids, growth inhibition. Kind of assay: Anticancer human tumor 565726-208-R1-J5-PDC patient-derived pancreatic adenocarcinoma cell line growth inhibition [RAS]. As to conditions: for IC50: curve of first compound; for viability, T/C: stronger effect = lower value. The source says:
RAS pathway inhibitors in Combinations in Complex Spheroids
A high-throughput screen of multi-cell type tumor spheroids was designed to identify active combinations of RAS pathway inhibitors and targeted small molecules. Complex spheroids include a stromal component modeled by human endothelial cells (HUVEC) and fibroblasts modeled by human mesenchymal stem cells (MSCs). The concentration ranges selected for each drug and investigational agent were based upon clinically achievable concentrations if the clinical Cmax of the agent was known.
Compounds. The drugs and investigational agents: abemaciclib (NSC768073), cobimetinib (NSC768068), divarasib (GDC6063, NSC841802), docetaxel (NSC628503), GDC-1971 (RLY-1971, NSC841576), gemcitabine (NSC613327), inavolisib (NSC800729), ipatasertib (NSC767898), KB-0742 (NSC834161), MRTX-1133 (NSC836407), osimertinib (NSC779217), RMC-4630 (NSC839698), RMC-6236 (NSC851965), RMC-6291 (NSC852671), Ro-3306 (NSC812927), sapanisertib (NSC764658), SN-38 (NSC673596), staurosporine (NSC755774), SY5609 (NSC837396), and tovorafenib (DAY101, NSC766906), were obtained from the National Cancer Institute (NCI) Developmental Therapeutics Program Chemical Repository. The FDA-approved anticancer drug set is available from the NCI Developmental Therapeutics Program. […] The stock solutions were prepared in dimethyl sulfoxide (DMSO, Sigma-Aldrich, St. Louis, MO, cat. D2650) at 800-fold the tested concentration and stored at -70 degrees C prior to their use. All drugs and investigational agents were tested over a range starting from a high concentration at or near the clinical Cmax and decreasing in half-log increments. If the clinical Cmax for an agent had not been determined, the highest concentration tested was 10 microM.
Cell Culture. All cells were maintained in an incubator at 37 degrees C and 5% CO2 with 95% humidity. The PDC lines were cultured according to standard operating procedures established by the NCI PDMR. All PDCs were thawed and cultured in Matrigel-coated flasks prepared with a working solution of 1X Ham's F-12 nutrient mix, without supplementation (Invitrogen, Waltham, MA, cat. 11765054), 100 U/mL penicillin-streptomycin (Invitrogen, cat. 15140122), and 2.5% Matrigel (Corning Inc., Corning, NY, cat. 354248) for the first three passages. The 362531-283-R-J2-PDC and 782815-120-R-J1-PDC lines were cultured in 6C/Colon 1B media, which includes advanced DMEM/F-12 (Thermo Fisher Scientific, cat. 12634028), 10 mM HEPES (Thermo Fisher Scientific, cat. 15630080), 1X GlutaMAX supplement (Thermo Fisher Scientific, cat. 35050061), 0.1 mg/mL primocin (InvivoGen, San Diego, CA, cat. ant-pm-2), 10% defined fetal bovine serum, heat inactivated (HyClone Laboratories Inc., Logan, UT, cat. SH30070.03HI), 50% L-WRN conditioned media (ATCC, cat. CRL-3276), 1.25 mM N-Acetyl-L-cysteine (Sigma-Aldrich, cat. A9165), 10 mM nicotinamide (Sigma-Aldrich, cat. N0636), 1X B-27 supplement (Thermo Fisher Scientific, cat. 17504044), 1X N-2 supplement (Thermo Fisher Scientific, cat. 17502048), 50 ng/mL human EGF (Thermo Fisher Scientific, cat. PHG0311), and 10 microM Y-27632 dihydrochloride (Tocris Bioscience, cat. 1254). The K12877-001-R-J1-PDC line was cultured in 6I media, which includes all 6C/Colon 1B media plus 10 ng/mL human FGF-10 (PeproTech, cat. 100-26), 1 ng/mL human FGF-2 (PeproTech, cat. 100-18B), 1 µM prostaglandin E2 (Tocris Bioscience, cat. 2296), […] hydrocortisone (Sigma-Aldrich, cat. H4001), and […] bovine insulin (Sigma-Aldrich, cat. I6634). The K86415-001-R-J1-PDC line was cultured in 6D media, which includes all 6C/Colon 1B media components minus the L-WRN conditioned media. The 485176-168-R4-J1-PDC was cultured in PANC media, which includes all 6C/Colon 1B media plus 100 ng/mL human FGF-10 (PeproTech, cat. 100-26), 500 nM SB-431542 (Selleckchem, cat. S1067), and 10 nM gastrin (Tocris Bioscience, cat. 3006). […]

SMILES strings stand for the structures.
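Also: spheroids exposed to compounds for seven days before readout.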

On to `CC1(C)CCC(Nc2ncc(C(F)(F)F)c(-c3c[nH]c4c(P(C)(C)=O)c(C#N)ccc34)n2)CN1` (stereo unspecified) + C=CC(=O)N1CCN(c2nc(OCC3CCCN3C)nc3c(F)c(-c4nc(N)cc(C)c4C(F)(F)F)c(Cl)cc23)C(C)C1, for which the IC50 runs as follows: (second compound 0.00316 µM) 6.76 nM; (second compound 0.01 µM) 7.74 nM; (second compound 0.0316 µM) 5.42 nM; (second compound 0.1 µM) 5.76 nM; (second compound 0.316 µM) 6.16 nM; (second compound 1 µM) 6.81 nM. For the same compound, the viability, T/C is, setting by setting: (second compound 0.00316 µM, first compound 0.000949 µM) 133%; (second compound 0.00316 µM, first compound 0.003 µM) 73.7%; (second compound 0.00316 µM, first compound 0.00949 µM) 40.1%; (second compound 0.00316 µM, first compound 0.03 µM) 40.4%; (second compound 0.00316 µM, first compound 0.0949 µM) 41.2%; (second compound 0.00316 µM, first compound 0.3 µM) 37.3%. Besides, the viability, T/C is, setting by setting: (second compound 0.01 µM, first compound 0.000949 µM) 136%; (second compound 0.01 µM, first compound 0.003 µM) 74.6%; (second compound 0.01 µM, first compound 0.00949 µM) 46%; (second compound 0.01 µM, first compound 0.03 µM) 34.2%; (second compound 0.01 µM, first compound 0.0949 µM) 41.3%; (second compound 0.01 µM, first compound 0.3 µM) 39.9%. For the same compound, the viability, T/C reads like this: (second compound 0.0316 µM, first compound 0.000949 µM) 127%; (second compound 0.0316 µM, first compound 0.003 µM) 65.8%; (second compound 0.0316 µM, first compound 0.00949 µM) 34.2%; (second compound 0.0316 µM, first compound 0.03 µM) 28.4%; (second compound 0.0316 µM, first compound 0.0949 µM) 39.7%; (second compound 0.0316 µM, first compound 0.3 µM) 37.7%. Also, the viability, T/C runs as follows: (second compound 0.1 µM, first compound 0.000949 µM) 143%; (second compound 0.1 µM, first compound 0.003 µM) 67.7%; (second compound 0.1 µM, first compound 0.00949 µM) 33.7%; (second compound 0.1 µM, first compound 0.03 µM) 36.8%; (second compound 0.1 µM, first compound 0.0949 µM) 39%; (second compound 0.1 µM, first compound 0.3 µM) 36.5%. Moreover, the viability, T/C reads like this: (second compound 0.316 µM, first compound 0.000949 µM) 130%; (second compound 0.316 µM, first compound 0.003 µM) 67.3%; (second compound 0.316 µM, first compound 0.00949 µM) 40.2%; (second compound 0.316 µM, first compound 0.03 µM) 32.5%; (second compound 0.316 µM, first compound 0.0949 µM) 38%; (second compound 0.316 µM, first compound 0.3 µM) 34.6%. The viability, T/C reads like this: (second compound 1 µM, first compound 0.000949 µM) 140%; (second compound 1 µM, first compound 0.003 µM) 70.2%; (second compound 1 µM, first compound 0.00949 µM) 41.7%; (second compound 1 µM, first compound 0.03 µM) 38.9%; (second compound 1 µM, first compound 0.0949 µM) 36.5%; (second compound 1 µM, first compound 0.3 µM) 38.9%.

Consider `Nc1ccn(C2OC(CO)C(O)C2(F)F)c(=O)n1` (stereo unspecified), for which the viability, T/C is 108% [middle of 4 runs] (compound 0.00316 µM), 70.9% [middle of 4 runs] (compound 0.0316 µM), 62.3% [middle of 4 runs] (compound 0.1 µM) and 38.8% [middle of 4 runs] (compound 1 µM).

One may read the IC50 as the point on the concentration scale where inhibition reaches its midpoint. As a reminder, the viability, T/C is the ratio of treated to control.
